Several values for one entry are separate records, joined by “and”; a condition that tells them apart may be missing. Equal entries are not always repeated. Entries after “also recorded” stand apart in the source; their conditions may differ.
Assays:
[1] = rat liver microsomes incubated with 3-MI; cited from earlier work
[2] = Microsomal incubations of 3MI: production of 3MI metabolites by pig liver microsomes (HPLC); type: in vitro ADME; conditions: for Maximum rate of production: highest of 30 pig liver microsome samples; for Minimum rate of production: lowest of 30 pig liver microsome samples; for Rate of Production (pmol/mg prot./min) ±SD: metabolite formed from 0.4 mM 3MI, mean ±SD, n = 30
Procedure: Preparation of microsomes.
Microsomal incubations. […] C. (production of metabolites was determined to be linear over a range of 10 to 40 min). Incubation volumes were 0.5 ml. Reactions were started by the addition of NADPH after 3-minute preincubation periods at 37° C., and stopped with 0.5 ml of ice-cold acetonitrile. Incubations of all 30 samples were run in duplicate and for control incubations NADPH was omitted. […] A 50 μl aliquot of the clear supernatant was analyzed by high-performance liquid chromatography (HPLC).
Analytical chromatography. […] Absorbance was monitored at 250 nm; fluorescence was monitored at excitation and emission wavelengths of 286 and 350 nm, respectively. HPLC analysis for 3MI metabolites was conducted immediately after the incubations. Metabolites were identified by comparison of retention times, and co-injection of standards (spiking the metabolite mixture with authentic standards).

aldehyde oxidase [3] = experiment: Hepatic aldehyde oxidase activity measured as formation of HMOI from HMI by cytosol; type: in vitro ADME, pig
Text: Preparation of porcine liver cytosol.
Chromatographic analysis. […] Absorbance was monitored at 250 nm.

[4] = Skatole level in backfat of CYP2A6 deletion mutant and wild type pigs (colorimetric assay); type: in vivo, pig; conditions: sample with CYP2A6 deletion mutation
Procedure: A backfat sample was collected at the midline point of 11th rib and frozen at −20° C. until assayed for skatole. The skatole content was measured with a colorimetric assay, according to the method described by Gonzalo et al. (2000).

[5] = Measurement of 3MI fat content in backfat (colorimetric assay); type: in vivo, pig
Text: Measurement of 3MI fat content. For the quantitation of the 3MI fat content, a sample of backfat was taken from each pig and its 3MI content measured with a colorimetric assay (Mortensen and Sorensen, 1984). All analysis were done in duplicate.

[6] = Stability of isolated UV-1 in acetonitrile:water solution at room temperature (HPLC at 7-day intervals); type: physicochemical
Procedure: UV Spectroscopy. The UV spectrum of the metabolites identified on the basis of their retention times on HPLC (HMOI, 3MOI, I3C, and 2-aminoacetophenone) were identical to those of authentic standards. Spectra of metabolites were recorded using water as solvent, and the wavelengths of maximal absorption were as follows: HMOI: λmax (nm): 208, 253; 3MOI: λmax (nm): 205, 252; I3C: λmax (nm): 221, 278; 2-aminoacetophenone: λmax (nm): 228, 257. The UV spectrum of 3-methylindole was: λmax (nm): 224, 281. The UV spectrum of UV-1 metabolite was: λmax (nm): 204, 238. […] Isolated UV-1 was kept in acetonitrile:water solution at room temperature and the solution was analyzed by HPLC at 7-day intervals for 6 weeks. After 6 weeks only about 25% of the original compound remained and it was observed that UV-1 was converted into 3MOI.

aldehyde oxidase [7] = conditions: up to 1.0 mM in the assay mixture
aldehyde oxidase [8] = experiment: in vitro; conditions: male, pig, porcine liver cytosol, pH 7.4, probe HMI (conversion to HMOI)

Row | SMILES | Maximum rate of production [2] | Minimum rate of production [2] | Rate of Production (pmol/mg prot./min) ±SD ([2]; pig liver microsomes) | Percentage of all 3MI metabolites produced (average) ([2]; pig liver microsomes) | further results
1 | NCC(=O)c1ccccc1 [2-aminoacetophenone] | 12.7 pmol/mg prot./min | 3.4 pmol/mg prot./min | 7.8 ± 2.4 pmol/mg prot./min | 0.5% | Percentage of the metabolites formed [1]: 12%
2 | O=CNCC(=O)c1ccccc1 [2-formamidoacetophenone] | – | – | – | – | Percentage of the metabolites formed [1]: 33%
3 | Cc1c[nH]c2ccccc12 [3-methylindole] | – | – | – | – | Skatole level in fat versus wild type samples [4]: much higher; Mean 3-methylindole content (mg/kg) in fat ([5]; High accumulator pigs (0.2 mg/kg or more), n 7): 0.24 mg/kg; Mean 3-methylindole content (mg/kg) in fat ([5]; Low accumulator pigs (0.1 mg/kg or less), n 8): 0.09 mg/kg; Mean 3-methylindole content (mg/kg) in fat ([5]; Moderate accumulator pigs (0.11–0.19 mg/kg), n 15): 0.15 mg/kg; 3MI fat content, mean ([5]; all samples, 30 pigs): 0.15 mg/kg; 3MI fat content, range ([5]; all samples, 30 pigs): 0.07 to 0.3 mg/kg
4 | CC1C(=O)Nc2ccccc21 (centres unmarked) [3-methyloxindole] | 700.8 pmol/mg prot./min | 234.4 pmol/mg prot./min | 420.9 ± 118.1 pmol/mg prot./min | 27.9% | Percentage of the metabolites formed [1]: 5%
5 | OCc1c[nH]c2ccccc12 [Indole-3-carbinol, indole-3-carbinol] | 85.7 pmol/mg prot./min | 12.1 pmol/mg prot./min | 37.1 ± 15.8 pmol/mg prot./min | – | –
6 | CC1(O)C=Nc2ccccc21 (centres unmarked) [UV-1, 3-hydroxy-3-methylindolenine] | 1556.3 pmol/mg prot./min | 180.5 pmol/mg prot./min | 750.7 pmol/mg prot./min and 750.7 ± 414.5 pmol/mg prot./min | 45.1% | Stability (in words) [6]: unstable compound; Original compound remaining ([6]; acetonitrile:water solution, room temperature, after 6 weeks, converted into 3MOI): about 25%
7 | Oc1ncnc2[nH]ncc12 [allopurinol] | – | – | – | – | Effect on the conversion of HMI to HMOI (aldehyde oxidase [7]): did not affect; also recorded: lack of inhibition
8 | CCN(CC)CCCC(C)Nc1c2ccc(Cl)cc2nc2ccc(OC)cc12 (centres unmarked) [quinacrine] | – | – | – | – | activity at 10 min, 50 µM (aldehyde oxidase [8]): 75.5%; activity at 10 min, 1 mM (aldehyde oxidase [8]): 43.4%

Continued, in another order:

Row | Maximum rate of production [2] | Minimum rate of production [2] | Rate of Production (pmol/mg prot./min) ±SD ([2]; pig liver microsomes) | Percentage of all 3MI metabolites produced (average) ([2]; pig liver microsomes) | SMILES | further results
9 | 516.5 pmol/mg prot./min | 118.9 pmol/mg prot./min | 272.4 ± 91.6 pmol/mg prot./min | 18.5% | CC1(O)C(=O)Nc2ccccc21 (centres unmarked) [3-hydroxy-3-methyloxindole] | Mean aldehyde oxidase activity (nmol HMOI/mg prot./min) (aldehyde oxidase [3]; High accumulator pigs, n 7): 0.80 nmol HMOI/mg prot./min; Mean aldehyde oxidase activity (nmol HMOI/mg prot./min) (aldehyde oxidase [3]; Low accumulator pigs, n 8): 2.73 nmol HMOI/mg prot./min; Mean aldehyde oxidase activity (nmol HMOI/mg prot./min) (aldehyde oxidase [3]; Moderate accumulator pigs, n 15): 1.40 nmol HMOI/mg prot./min; AO activity, mean (aldehyde oxidase [3]; all samples, 30 pigs): 1.27 nmol HMOI/mg protein/min; AO activity, range (aldehyde oxidase [3]; all samples, 30 pigs): 0.25 to 3.53 nmol HMOI/mg protein/min
10 | 27.3 pmol/mg prot./min | 0.7 pmol/mg prot./min | 5.1 ± 5.8 pmol/mg prot./min | 0.3% | Cc1c[nH]c2ccc(O)cc12 [5-OH-3-methylindole] | Rate of Production (pmol/mg prot./min) ±SD ([2]; pig liver microsomes, listed as 5-OH-3MI): 5.1 pmol/mg prot./min
11 | 213.7 pmol/mg prot./min | – | 58.4 ± 47.2 pmol/mg prot./min | 4.9% | Cc1c[nH]c2cc(O)ccc12 [6-OH-3-methylindole, 6-OH-3-methylindole] | Average rate of production relative to the 5 isomer ([2]; 6-OH-3MI versus 5-OH-3MI, pig liver microsomes): approximately eleven times greater
